Values quoted from earlier work as cited in US20240156798A1, “ANTIOXIDANT COMPOSITIONS AND METHODS OF USE” (Sanare Pharmaceuticals, priority 2022, published 2024).
“Also recorded” adds a separate entry of the source. Like-named read-outs stand apart in the source and are kept apart here.

Columns and labels:
[1] = hundreds of animal models
ocular damage [2] = conditions: topical application, rat
ocular damage [3] = conditions: topical application, rhesus monkey
[4] = test system: radiation induced alopecia; conditions: topical, human clinical trials
[5] = test system: experimentally induced glaucoma; conditions: C57BL/6J mice
[6] = test system: high fat diet induced NAFLD; conditions: for high fat diet induced NAFLD: mice fed a high fat diet
[7] = test system: chemically induced colitis; conditions: in vivo
[8] = test system: acetic acid-induced experimental colitis; conditions: NAC 100 mg/kg for seven days
[9] = test system: human retinal pigment epithelium (RPE)
[10] = test system: photo-induced retinal degeneration; conditions: intraperitoneal injection
dry eye = conditions: eye drop administration
[11] = test system: normal tension glaucoma (NTG)
IBD = conditions: 168 patients, double blind, placebo-controlled
retinal degeneration = conditions: several models of neurodegeneration and damage, including retinal degeneration
[12] = test system: retinal ganglion cell (RCG) death after optic nerve crush
ocular alkali burn = conditions: in vivo
U.C. = U.C. patients, open label
[13] = RPE from both positive and negative AMD donors
[14] = systemic treatment, following optic nerve crush

Molecule: 4-hydroxy-2,2,6,6-tetramethylpiperidin-1-oxyl [TEMPOL]
- safety concerns [1]: No safety concerns
- ocular damage (ocular damage [2]): decrease
- ocular damage (ocular damage [3]): decrease
- radiation induced alopecia [4]: protect
- Glutathione S-Transferase (GST) gene(s) expression (gene expression): significantly increased
- TNFα regulation (gene expression): downregulates
- expression levels of keratinocyte growth factor (KGF) gene (gene expression): statistically increased
- expression of HIF-1α (gene expression): statistically decreased
- expression of HIF-2α (gene expression): statistically decreased
- expression of genes encoding for the 26s proteasome complex (gene expression): significantly decreased
- expression of the ADIPOQ gene (gene expression): statistically increased
- UNC5b (gene expression; cancer cells): significantly increases
- neuro-inflammation in the ocular hypertensive retina and optic nerve [5]: decreased
- high fat diet induced NAFLD [6]: Can treat and prevent NAFLD in mice
- degree of both neutrophil inflammation and lipid peroxidation in the inflamed bowel [7]: Reduction in the degree of both neutrophil

Molecule: CC(=O)N[C@@H](CS)C(=O)O [NAC, N-acetyl-cysteine]
- macroscopic and histological findings [8]: protective role
- GSH concentration ([8]; compared to vehicle controls): restoration
- NO concentration ([8]; compared to vehicle controls): restoration
- colon tissue MPO activity ([8]; compared to vehicle controls): significant decrease
- basal GSH content ([9]; AMD RPE): increase
- basal ROS ([9]; AMD RPE): reduction
- GSH depletion ([9]; H2O2, RPE from both positive and negative AMD donors): preventing
- H2O2 induced cell death [9, 13]: preventing
- excessive ROS accumulation [9, 13]: blocking
- basal mitochondrial function (ATP) ([9]; both groups of cells): improved
- effect on primary cultures of human RPE ([9]; patients with AMD): positive (protective) effect
- oxidation and ER stresses [10]: suppressed
- ROS accumulation in the retina ([10]; Balb/c mouse): inhibiting
- levels of ROS and inflammasome signaling (dry eye): diminished
- penetration to the posterior segment (retinitis pigmentosa; applied to the cornea): able to penetrate to the posterior segment
- protecting the retina from oxidative damage (retinitis pigmentosa; applied topically to the eye): effective
- glutathione levels ([11]; EAAC1 KO mice): increased
- oxidative stress and autophagy ([11]; EAAC1 KO mice): suppressed
- effect on retinal degeneration ([11]; mouse model of NTG): protective effect
- decline of retinal function ([11]; mouse, in vivo): prevented
- retinal ganglion cells (RGC), NTG-like neurodegeneration ([11]; mouse, in vivo): protected
- glucose tolerance ([6]; HFD mice): improved
- morphology of hepatic tissue ([6]; HFD mice): totally restored
- hepatic steatosis and metabolic disturbances ([6]; mice fed high fat diets (HFD), compared to normally fed mice): significantly reduced
- chemically induced colitis [7]: Protects against chemically induced
- Phase 2 study result (IBD): Positive results in a Phase 2

Molecule: C[C@H](CCC(=O)NCCS(=O)(=O)O)[C@H]1CC[C@H]2[C@@H]3[C@@H](O)C[C@@H]4C[C@H](O)CC[C@]4(C)[C@H]3CC[C@]12C [TUDCA, tauroursodeoxycholic acid]
- apoptosis following cellular injury (retinal degeneration): block
- retinal ganglion cells in the optic crush model ([12]; in vivo): Protects retinal ganglia cells in the optic; also recorded: Protects retinal ganglion cells in the optic
- RCGs survival [12, 14]: significantly enhanced
- apoptosis [12, 14]: suppressed
- cornea and retina injury (ocular alkali burn): protect
- ocular inflammation (ocular alkali burn): inhibit
- progression of HFD induced NALFD ([6]; TUDCA alone, mice): attenuate
- high fat diet induced NAFLD [6]: markedly reduces
- gut inflammation ([6]; mouse, in vivo): attenuates; also recorded: ameliorating
- intestinal barrier function ([6]; mouse, in vivo): improves; also recorded: improving
- intestinal fat transport ([6]; mouse, in vivo): decreases; also recorded: decreasing
- intestinal microbiota composition ([6]; mouse, in vivo): modulates; also recorded: modulating
- chemically induced colitis [7]: Active against chemically induced colitis
- Phase 1 study testing efficacy and safety (U.C.): Positive results in an open label Phase 1; also recorded: Positive results in Phase 1 study testing
